Reference: patent US10836727B2, “Crystal forms of lenvatinib” (Indena S.P.A., priority 2016, dated 2020)

Assays:
[1] = DVS analysis (percentage change in mass as function of relative humidity change); type: physicochemical; conditions: for sorption and desorption of water (reversibility): methanesulfonate
From the text: DVS analysis, shown in FIG. 11, reports the percentage change in mass as of the relative humidity change.
The DVS analysis, shown in FIG. 22, reports the percentage change in mass as function of the relative humidity change.

[2] = XRPD of the sample recovered at the end of DVS analysis; type: physicochemical; conditions: methanesulfonate
Description: The X-ray powder diffractogram (XRPD) has been obtained using the instrument X′Pert PRO PANalytical with single scan, using Kα1 radiation. The diffractogram is measured in reflection mode in the range 3-40° 2θ.

Compound	weight loss of the sample between the start and the end of analysis ([1]; DVS analysis, compatible with the loss of 1 mol of DMSO) [%]	sorption and desorption of water (reversibility) ([1]; DVS analysis)	mass increased percentage ([1]; DVS, between 40% and 80% RH of the absorption cycle) [%]	hygroscopicity classification ([1]; from DVS mass increase between 40% and 80% RH)	diffractogram / crystal structure after DVS [2]
COc1cc2nccc(Oc3ccc(NC(=O)NC4CC4)c(Cl)c3)c2cc1C(N)=O [DMSO-2, 4-[3-Chloro-4-(N′-cyclopropylureido)phenoxy]-7-methoxyquinoline-6-carboxamide methanesulfonate]	12.34	not reversible	–	–	–
COc1cc2nccc(Oc3ccc(NC(=O)NC4CC4)c(Cl)c3)c2cc1C(N)=O [H2O-1, 4-[3-Chloro-4-(N′-cyclopropylureido)phenoxy]-7-methoxyquinoline-6-carboxamide methanesulfonate]	–	reversible	10.9	hygroscopic	did not show any important modification
COc1cc2nccc(Oc3ccc(NC(=O)NC4CC4)c(Cl)c3)c2cc1C(N)=O [ACA-1 HT DRY, 4-[3-Chloro-4-(N′-cyclopropylureido)phenoxy]-7-methoxyquinoline-6-carboxamide methanesulfonate]	–	not very reversible	–	–	quite amorphous but its crystal structure did not change
